Assay results published in patent US6270979A (priority 1998, dated 2001).
Entries after “also recorded” stand apart in the source; their conditions may differ. Counter-ions that a name gives are not always drawn. Like-named read-outs stand apart in the source and are kept apart here.

How the values were obtained:
[1] = test system: Male ICR mice; conditions: mouse, in vivo
[2] = test system: opioid μ receptor; assay type: cell-based, human
[3] = test system: muscarinic m1 receptor mutant m1-E360A; assay type: cell-based
[4] = target: opioid μ receptor (Homo sapiens, UniProt P35372); assay type: cell-based
[5] = test system: D2 receptor (long splice isoform); assay: D2 receptor cAMP assay in stably transfected HEK293 cells; assay type: cell-based; conditions: for negative antagonism at D2 receptor: preliminary, stably transfected HEK293 cells, quinpirole as agonist
[6] = target: T1, μ opioid receptor (Rattus norvegicus, UniProt P33535); assay: Receptor recycling through endocytic vesicles; assay type: cell-based; parameters: expressed in transfected cells
[7] = target: epitope-tagged μ opioid receptor (EE-μR) (Rattus norvegicus, UniProt P33535); assay type: cell-based
[8] = target: T1, μ opioid receptor; conditions: added acutely, μ and EEμ receptor transfected HEK293 cells
[9] = test system: Mice; assay type: in vivo
[10] = test system: PKC; conditions: known; cited from earlier work
[11] = test system: PKA; conditions: known; cited from earlier work
[12] = test system: cAMP phosphodiesterase; conditions: generally recognized; Beavo et al.; cited from earlier work
[13] = test system: opioid μ receptor; conditions: prior knowledge; cited from earlier work

Sequence of opioid μ receptor (Homo sapiens, UniProt P35372) (P35372 whole entry, canonical isoform): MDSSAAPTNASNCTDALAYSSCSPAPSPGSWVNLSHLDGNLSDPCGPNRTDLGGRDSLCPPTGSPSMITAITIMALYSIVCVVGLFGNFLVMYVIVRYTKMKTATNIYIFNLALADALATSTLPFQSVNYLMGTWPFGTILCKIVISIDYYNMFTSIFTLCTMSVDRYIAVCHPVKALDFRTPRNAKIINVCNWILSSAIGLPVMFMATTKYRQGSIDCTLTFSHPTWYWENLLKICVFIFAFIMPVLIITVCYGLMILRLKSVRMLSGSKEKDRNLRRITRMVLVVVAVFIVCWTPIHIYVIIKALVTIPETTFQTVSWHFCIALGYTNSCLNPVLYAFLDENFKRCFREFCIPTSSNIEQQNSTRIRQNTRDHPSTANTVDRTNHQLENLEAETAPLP
Sequence of epitope-tagged μ opioid receptor (EE-μR) (P33535 whole entry): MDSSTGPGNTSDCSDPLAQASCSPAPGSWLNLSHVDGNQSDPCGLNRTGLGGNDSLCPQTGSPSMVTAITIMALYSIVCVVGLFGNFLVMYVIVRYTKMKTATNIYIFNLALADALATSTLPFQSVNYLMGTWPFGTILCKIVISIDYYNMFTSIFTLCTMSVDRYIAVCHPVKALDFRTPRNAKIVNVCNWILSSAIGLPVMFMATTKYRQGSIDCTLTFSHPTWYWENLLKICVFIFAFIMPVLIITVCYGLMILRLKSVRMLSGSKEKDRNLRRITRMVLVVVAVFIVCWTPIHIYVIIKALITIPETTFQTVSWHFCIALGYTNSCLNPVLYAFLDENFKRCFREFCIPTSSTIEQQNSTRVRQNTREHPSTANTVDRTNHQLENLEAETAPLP
T1 sequence (P33535 whole entry): as above

Molecule: C=CCN1CC[C@]23c4c5ccc(O)c4O[C@H]2C(=O)CC[C@@]3(O)[C@H]1C5 [naloxone]
- reversal of morphine dependence [1]: does not reverse the dependent state in vivo
- withdrawal jumps [1]: 77±20 jumps

Molecule: C=C1[C@@H](O)[C@@H]2O[C@]3(CC[C@H](/C=C/[C@@H](C)[C@@H]4CC(C)=C[C@@]5(O[C@H](C[C@@](C)(O)C(=O)O)CC[C@H]5O)O4)O3)CC[C@H]2O[C@@H]1[C@@H](O)C[C@H](C)[C@H]1O[C@@]2(CCCCO2)CC[C@H]1C [okadaic acid]
- effect of phosphatase inhibitor on enhancing μ* [2]: ineffective in enhancing μ*

Molecule: CN1[C@@H]2CC[C@H]1C[C@@H](OC(=O)C(CO)c1ccccc1)C2 (some centres unmarked) [atropine]
- effect on m1-E360A basal activity [3]: decreasing effects on m1-E360A basal activity

Molecule: CC(C)C[C@@H](NC(=O)[C@H](Cc1ccccc1)NC(=O)CNC(=O)[C@@H](C)NC(=O)[C@@H](N)Cc1ccc(O)cc1)C(=O)O [DADLE]
- classification of opioid drug (agonist / neutral / negative antagonist) [4]: full agonists and are either as effective if not more so than morphine

Molecule: OCCN1CCN(CCCN2c3ccccc3Sc3ccc(C(F)(F)F)cc32)CC1 [thuphenazine]
- negative antagonism at D2 receptor [5]: some degree of negative antagonism

Molecule: CN1CCN(CCCN2c3ccccc3Sc3ccc(C(F)(F)F)cc32)CC1 [trifluoperatine]
- negative antagonism at D2 receptor [5]: some degree of negative antagonism

Molecule: C[C@@H](NC(=O)[C@@H](N)Cc1ccc(O)cc1)C(=O)NCC(=O)N(C)[C@@H](Cc1ccccc1)C(=O)NCCO [DAMGO]
- classification of opioid drug (agonist / neutral / negative antagonist) [4]: full agonists and are either as effective if not more so than morphine
- receptor recycling through endocytic vesicles [6]: induced massive receptor recycling through endocytic vesicles
- receptor phosphorylation, potency and efficacy relative to morphine [7]: slightly more potent and efficacious than morphine
- signaling, potency and efficacy relative to morphine [8]: slightly more potent and efficacious than morphine

Molecule: CN1CC[C@]23c4c5ccc(O)c4O[C@H]2[C@@H](O)C=C[C@H]3[C@H]1C5 [morphine]
- analgesia of second morphine dose, saline control ([9]; 10 mg/kg morphine sulfate 5 hours after 100 mg/kg, 30 minutes after saline): 22±14%

Molecule: C=CCN1CC[C@]23c4c5ccc(O)c4O[C@H]2[C@@H](O)C=C[C@H]3[C@H]1C5 [Nalorphine]
- classification of opioid drug (agonist / neutral / negative antagonist) [4]: neutral antagonists
- effect on cAMP levels / constitutive activity in morphine pretreated cells [4]: no significant effect on cAMP levels in dependent cells

Molecule: O=C(CCCN1CCC2(CC1)C(=O)NCN2c1ccccc1)c1ccc(F)cc1 [spiperone]
- effect on cAMP levels in absence of agonist ([5]; incubation in absence of agonist, relative to control): decreased cAMP levels relative to control
- negative antagonism at D2 receptor [5]: some degree of negative antagonism

Molecule: D-Phe-Cys-Tyr-D-Trp-Arg-Thr-Pen-ThrNH2 [CTAP]
- withdrawal jumps [1]: 32±12 jumps

Molecule: CN1[C@@H]2C[C@@H](OC(=O)[C@H](CO)c3ccccc3)C[C@H]1[C@@H]1O[C@@H]12 [scopolamine]
- classification at m1-E360A [3]: negative antagonists
- effect on m1-E360A basal activity [3]: decreasing effects on m1-E360A basal activity

Molecule: COC[C@@H]([C@H](O)[C@H](O)C(=O)NCC[C@H](C)c1nc(/C=C/C[C@@H]2O[C@]3(C[C@@H](O)[C@@H]2C)O[C@H]([C@H](C[C@H](O)[C@H](C)[C@H](O)[C@H](C)/C=C(C)/C(C)=C/C=C/C(C)=C\C#N)OC)[C@H](OP(=O)(O)O)C3(C)C)co1)N(C)C [calyculin A]
- effect on m1-E360A basal activity ([3]; HEK293 cells): enhanced the basal activity

Molecule: O=C(CCCN1CCC(O)(c2ccc(Cl)cc2)CC1)c1ccc(F)cc1 [haloperidol]
- negative antagonism at D2 receptor [5]: some degree of negative antagonism

Molecule: N=C(N)NCCNS(=O)(=O)c1cccc2cnccc12 [HA-1004, N(2-guanidinoethyl)-5-isoquinolinesulfonamide hydrochloride]
- effect on naloxone cAMP overshoot / formation of μ* when added with morphine pretreatment [2]: capable of preventing formation of the constitutively active μ receptor state

Molecule: CC1CNCCN1S(=O)(=O)c1cccc2cnccc12.Cl.Cl (centres unmarked) [H7, 1-(5-isoquinolinesulfonyl)-2-methylpiperazine dihydrochloride]
- effect on gross behavior of the animals [1]: without affecting gross behavior of the animals
- effect on naloxone induced withdrawal jumping [1]: strongly suppressed the number of naloxone precipitated jumps
- analgesia of second morphine dose, after H7 ([9]; mouse, in vivo): 90±10%
- effect on morphine antinociception ([9]; mouse, in vivo): without affecting gross behavior of the animals or morphine antinociception
- reversal of morphine tolerance ([9]; mouse, in vivo, dihydrochloride): fully reversed morphine tolerance; also recorded: completely reversed tolerance; also recorded: reverse morphine tolerance and dependence in mice
- effect on acute depression of cAMP levels by morphine [2]: did not prevent the acute depression of cAMP levels by morphine
- effect on spontaneous cAMP overshoot induced by morphine pretreatment [2]: had some effects on the spontaneous cAMP overshoot
- effect on naloxone cAMP overshoot / formation of μ* when added with morphine pretreatment ([2]; dihydrochloride): abolished the naloxone-induced cAMP overshoot; also recorded: completely prevents the formation of μ* receptors
- reversal of naloxone cAMP overshoot / μ* activity when added after morphine pretreatment ([2]; dihydrochloride): rapidly reverses μ* activity; also recorded: completely reversed the naloxone cAMP overshoot
- protein kinase inhibition PKC [10]: known to inhibit several protein kinases including PKA and PKC
- effect on μ receptor (μ*) phosphorylation ([7]; dihydrochloride): strongly inhibits μ receptor phosphorylation; also recorded: inhibited μ* receptor phosphorylation
- protein kinase inhibition PKA [11]: known to inhibit several protein kinases including PKA and PKC

Molecule: CC(C)Cn1c(=O)n(C)c(=O)c2[nH]cnc21 [IBMX, 3-isobutyl-1-methyl-xanthine]
- cAMP phosphodiesterase inhibition [12]: cAMP phosphodiesterase inhibitor
- effect on naloxone cAMP overshoot / formation of μ* when added with morphine pretreatment [2]: suppresses μ* formation; also recorded: capable of preventing formation of the constitutively active μ receptor state
- effect on μ receptor (μ*) phosphorylation [7]: suppressed μ receptor phosphorylation as observed for H7; also recorded: μ receptor kinase inhibitor; also recorded: inhibited μ* receptor phosphorylation

Molecule: CCN1CCCC1CNC(=O)c1cc(S(N)(=O)=O)ccc1OC (centres unmarked) [sulpiride]
- negative antagonism at D2 receptor [5]: some degree of negative antagonism

Molecule: D-Phe-Cys-Tyr-D-Trp-Arg-Thr-Pen-Thr-NH2 [CTOP]
- classification of opioid drug (agonist / neutral / negative antagonist) [4]: neutral (null) antagonist; also recorded: neutral antagonists
- effect on cAMP levels / constitutive activity in morphine pretreated cells [4]: not to reverse the constitutive activity of the μ receptor state; also recorded: does not act as an inverse agonist; also recorded: no effect on the constitutively active μ receptor state; also recorded: do not affect cAMP levels; also recorded: no significant effect on cAMP levels in dependent cells
- effect on naloxone cAMP overshoot when combined with naloxone [4]: block the inverse agonist effects of naloxone; also recorded: Reversal of the naloxone cAMP overshoot
- effect on acute depression of cAMP levels by morphine [2]: block the acute effects of morphine; also recorded: reversed the reduction of the cAMP level caused by morphine
- blockade of acute effects of morphine (previously known) [13]: fully block the acute effects of morphine

Molecule: Cl.Cl.NCCNS(=O)(=O)c1cccc2cnccc12 [H9, N-(2-aminoethyl)-5-isoquinolinesulfonamide dihydrochloride]
- effect on naloxone cAMP overshoot / formation of μ* when added with morphine pretreatment [2]: capable of preventing formation of the constitutively active μ receptor state
